Here are results for 25 compounds from patent publication US20150157739A1, “Imidazo[2,1]thiazol-3-one derivatives” (Hoffmann-La Roche Inc., priority 2012, published 2015).

Assay [1] addresses T1, aggregated recombinant human-microtubule associated protein Tau (Homo sapiens, UniProt P10636).
T1 construct: Recombinant human-microtubule associated protein Tau purified from E. coli is aggregated at a concentration of 5 μM with Arachidonic Acid (100 μM) in Tris 10 mM pH8, 24 h at 37° C
Briefly: Thiazin-red R displacement fluorescence assay on aggregated Tau. Format: binding. As to conditions: displacement of Thiazin-red R from aggregated Tau; compound 0.3 nM to 10000 nM; 30 min room temperature; Ex 531 nm/Em 595 nm. The protocol:
(§1) Assay for Determination of […] for Tau and A-Beta
(§2) Recombinant human-microtubule associated protein Tau purified from E. coli is aggregated at a concentration of 5 μM with Arachidonic Acid (100 μM) in Tris 10 mM pH8, 24 h at 37° C. Synthetic Aβ40 is aggregated at a concentration of 50 μM with Arachidonic Acid (100 μM) in Tris 10 mM pH8, for three days at 37° C., under shaking at 150 rpm.
(§3) A saturation analysis of Thiazin-red R to the aggregated proteins is done to determine the affinity (Kd) of the Thiazin-red R to the aggregated protein.
(§4) Thiazin-red R will be added at the concentration corresponding to the Kd to the respective aggregated protein binding site, to induce a fluorescent signal that can be inhibited by the addition of a displacer compound.
(§5) In parallel, auto fluorescence of the compound is measured together with the aggregated proteins, but without Thiazin-red R. As negative control, ligand and aggregated protein is used and as positive control, Thiazin-red R, reference compound with known activity and aggregated protein is used.
(§6) Assay is performed in Perkin Elmer OptiPlate 384, black, 45 ul assay volume, assay buffer is DPBS no CaCl2 no MgCl2 (GIBCO N. 14020). Tested compounds are diluted in DMSO and 2 μl is added to the assay ([…]). Assay is started by the addition of the aggregated protein (competitive condition). Plates are shortly shacked (1 min with Sterico variomag teleshake) and incubated for 30 min at room temperature. Measurement are done with En:Vision (Perkin Elmer), at Excitation 531 nm/Emission 595 nm.

For assay [2], the target named is T2, aggregated synthetic Aβ40 (Homo sapiens, UniProt P05067).
T2 construct: Synthetic Aβ40 is aggregated at a concentration of 50 μM
As to the kind of experiment: Thiazin-red R displacement fluorescence assay on aggregated A-beta. The class given is binding. As to conditions: displacement of Thiazin-red R from aggregated Aβ40; compound 0.3 nM to 10000 nM; 30 min room temperature; Ex 531 nm/Em 595 nm. The protocol:
as §1, §2, §3, §4, §5, §6

Some results are limits rather than exact numbers.

T2 sequence (P05067 672-711 limits assumed): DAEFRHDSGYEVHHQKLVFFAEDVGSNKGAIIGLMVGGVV
T1 sequence (P10636 whole entry): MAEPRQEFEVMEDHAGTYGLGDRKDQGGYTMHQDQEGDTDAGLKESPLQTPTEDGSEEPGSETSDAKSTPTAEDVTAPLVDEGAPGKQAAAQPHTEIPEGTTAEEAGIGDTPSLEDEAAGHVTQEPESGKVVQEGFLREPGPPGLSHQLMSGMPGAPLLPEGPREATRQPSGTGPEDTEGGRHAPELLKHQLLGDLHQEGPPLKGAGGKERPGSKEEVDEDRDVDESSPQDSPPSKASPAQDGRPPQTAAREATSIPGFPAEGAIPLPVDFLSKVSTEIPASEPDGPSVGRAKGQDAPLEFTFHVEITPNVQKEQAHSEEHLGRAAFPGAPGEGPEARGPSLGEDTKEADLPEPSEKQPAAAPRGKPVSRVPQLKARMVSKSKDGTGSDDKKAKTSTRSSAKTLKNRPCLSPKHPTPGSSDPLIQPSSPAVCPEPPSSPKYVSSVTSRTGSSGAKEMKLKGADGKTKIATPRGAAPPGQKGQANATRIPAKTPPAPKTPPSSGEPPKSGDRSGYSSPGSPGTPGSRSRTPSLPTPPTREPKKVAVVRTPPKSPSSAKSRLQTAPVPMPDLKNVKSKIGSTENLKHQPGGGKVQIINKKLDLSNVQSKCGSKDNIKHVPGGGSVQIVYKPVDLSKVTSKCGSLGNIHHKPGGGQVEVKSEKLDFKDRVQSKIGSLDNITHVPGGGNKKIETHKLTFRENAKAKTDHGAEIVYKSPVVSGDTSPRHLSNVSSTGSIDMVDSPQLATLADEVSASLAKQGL

Take `COc1cccc(-c2cn3c(=O)/c(=C/c4cc(F)c(O)c(OC)c4)sc3n2)c1` [Example 47, 2-[1-(3-Fluoro-4-hydroxy-5-methoxy-phenyl)-meth-(Z)-ylidene]-6-(3-methoxy-phenyl)-imidazo[2,1-b]thiazol-3-one]: the IC50 (in general, the midpoint of a concentration-inhibition curve) turned out to be 17 nM in assay [1] and 540 nM in assay [2].

Consider `COc1cccc(-c2cn3c(=O)/c(=C/c4cc(F)c(O)c(OC)c4)sc3n2)n1` [Example 48, 2-[1-(3-Fluoro-4-hydroxy-5-methoxy-phenyl)-meth-(Z)-ylidene]-6-(6-methoxy-pyridin-2-yl)-imidazo[2,1-b]thiazol-3-one], for which the IC50 was found to be 20 nM in assay [1] and 1790 nM in assay [2].

`COc1cc(/C=c2\sc3nc(-c4cc(F)cc(F)c4)cn3c2=O)cc(Cl)c1O` [Example 49, 2-[1-(3-Chloro-4-hydroxy-5-methoxy-phenyl)-meth-(Z)-ylidene]-6-(3,5-difluoro-phenyl)-imidazo[2,1-b]thiazol-3-one]: the IC50 was determined as 16 nM in assay [1] and 1370 nM in assay [2].

As to `COc1cc(/C=c2\sc3nc(-c4cccc(C#N)c4)cn3c2=O)cc(OC(C)C)c1O` [Example 51, 3-{2-[1-(4-Hydroxy-3-methoxy-5-isopropoxyphenyl)-meth-(Z)-ylidene]-3-oxo-2,3-dihydro-imidazo[2,1-b]thiazol-6-yl}-benzonitrile], the figures for the IC50 in assay [1] and in assay [2] were 275 nM and > 10000 nM, respectively.

Take `COc1cc(/C=c2\sc3nc(-c4cccc(C)c4)cn3c2=O)cc(Cl)c1O` [Example 52, 2-[1-(3-Chloro-4-hydroxy-5-methoxy-phenyl)-meth-(Z)-ylidene]-6-m-tolyl-imidazo[2,1-b]thiazol-3-one]: the IC50 worked out at 7 nM in assay [1] and 1020 nM in assay [2].

Regarding `COc1cc(/C=c2\sc3nc(-c4ccccc4F)cn3c2=O)cc(Cl)c1O` [Example 53, 2-[1-(3-Chloro-4-hydroxy-5-methoxy-phenyl)-meth-(Z)-ylidene]-6-(2-fluoro-phenyl)-imidazo[2,1-b]thiazol-3-one], the results for the IC50 in assay [1] and in assay [2] were 16 nM and 5650 nM, respectively.

As to `CCc1cccc(-c2cn3c(=O)/c(=C/c4cc(Cl)c(O)c(OC)c4)sc3n2)c1` [Example 54, 2-[1-(3-Chloro-4-hydroxy-5-methoxy-phenyl)-meth-(Z)-ylidene]-6-(3-ethyl-phenyl)-imidazo[2,1-b]thiazol-3-one], the IC50 in assay [1] is 25 nM; in assay [2] it was 653 nM.

Regarding `COc1cc(/C=c2\sc3nc(-c4cccc(F)c4)cn3c2=O)cc(Cl)c1O` [Example 57, 2-[1-(3-Chloro-4-hydroxy-5-methoxy-phenyl)-meth-(Z)-ylidene]-6-(3-fluoro-phenyl)-imidazo[2,1-b]thiazol-3-one], the IC50 stood at 6 nM in assay [1] and 3320 nM in assay [2].

Take `COc1cc(/C=c2\sc3nc(-c4cccc(F)c4)cn3c2=O)cc(F)c1O` [Example 58, 2-[1-(3-Fluoro-4-hydroxy-5-methoxy-phenyl)-meth-(Z)-ylidene]-6-(3-fluoro-phenyl)-imidazo[2,1-b]thiazol-3-one]: the IC50 turned out to be 19 nM in assay [1] and 752 nM in assay [2].

`COc1cc(/C=c2\sc3nc(-c4cccc(F)c4)cn3c2=O)cc(OC)c1O` [Example 59, 2-[1-(4-Hydroxy-3,5-dimethoxy-phenyl)-meth-(Z)-ylidene]-6-(3-fluoro-phenyl)-imidazo[2,1-b]thiazol-3-one]: the IC50 in assay [1] amounted to 2 nM; in assay [2], 50 nM.

As to `COc1cc(/C=c2\sc3nc(-c4ccccc4)cn3c2=O)cc(Cl)c1O` [Example 60, 2-[1-(3-Chloro-4-hydroxy-5-methoxy-phenyl)-meth-(Z)-ylidene]-6-phenyl-imidazo[2,1-b]thiazol-3-one], the IC50 in assay [1] was found to be 25 nM; in assay [2], 851 nM.

Consider `COc1cccc(-c2cn3c(=O)/c(=C/c4cc(Cl)c(O)c(OC)c4)sc3n2)c1` [Example 61, 2-[1-(3-Chloro-4-hydroxy-5-methoxy-phenyl)-meth-(Z)-ylidene]-6-(3-methoxy-phenyl)-imidazo[2,1-b]thiazol-3-one], for which the figures for the IC50 in assay [1] and in assay [2] were 4 nM and 395 nM, respectively.

On to `COc1cc(/C=c2\sc3nc(-c4cccc(OC(F)F)c4)cn3c2=O)cc(Cl)c1O` [Example 62, 2-[1-(3-Chloro-4-hydroxy-5-methoxy-phenyl)-meth-(Z)-ylidene]-6-(3-(difluoromethoxy)-phenyl)-imidazo[2,1-b]thiazol-3-one], for which the figures for the IC50 in assay [1] and in assay [2] were 6 nM and 4160 nM, respectively.

As to `COc1cc(/C=c2\sc3nc(-c4cc(C)nc(C)c4)cn3c2=O)cc(Cl)c1O` [Example 63, 2-[1-(3-Chloro-4-hydroxy-5-methoxy-phenyl)-meth-(Z)-ylidene]-6-(2,6-dimethyl-pyridin-4-yl)-imidazo[2,1-b]thiazol-3-one], the IC50 in assay [1] was 13 nM; in assay [2] it was 418 nM.

Take `COc1cc(/C=c2\sc3nc(-c4cc(C)nc(C)c4)cn3c2=O)cc(F)c1O` [Example 64, 2-[1-(3-Fluoro-4-hydroxy-5-methoxy-phenyl)-meth-(Z)-ylidene]-6-(2,6-dimethyl-pyridin-4-yl)-imidazo[2,1-b]thiazol-3-one]: the results for the IC50 in assay [1] and in assay [2] were 32 nM and 406 nM, respectively.

In the case of `COc1cc(/C=c2\sc3nc(-c4cc(C)nc(C)c4)cn3c2=O)cc(Br)c1O` [Example 65, 2-[1-(3-Bromo-4-hydroxy-5-methoxy-phenyl)-meth-(Z)-ylidene]-6-(2,6-dimethyl-pyridin-4-yl)-imidazo[2,1-b]thiazol-3-one], the IC50 in assay [1] stood at 7 nM; in assay [2], 304 nM.

Turning to `COc1cc(/C=c2\sc3nc(-c4cccc(CCl)c4)cn3c2=O)cc(Cl)c1O` [Example 67, 2-[1-(3-Chloro-4-hydroxy-5-methoxy-phenyl)-meth-(Z)-ylidene]-6-(3-(chloromethyl)phenyl)-imidazo[2,1-b]thiazol-3-one], the figures for the IC50 in assay [1] and in assay [2] were 0.8 nM and 9 nM, respectively.

With `COc1cc(/C=c2\sc3nc(-c4ccncc4)cn3c2=O)cc(Cl)c1O` [Example 68, 2-[1-(3-Chloro-4-hydroxy-5-methoxy-phenyl)-meth-(Z)-ylidene]-6-(pyridin-4-yl)-imidazo[2,1-b]thiazol-3-one], the IC50 in assay [1] came to 3 nM; in assay [2], 300 nM.

Regarding `COc1cc(/C=c2\sc3nc(-c4ccncc4)cn3c2=O)cc(F)c1O` [Example 69, 2-[1-(3-Fluoro-4-hydroxy-5-methoxy-phenyl)-meth-(Z)-ylidene]-6-(pyridin-4-yl)-imidazo[2,1-b]thiazol-3-one], the values for the IC50 in assay [1] and in assay [2] were 20 nM and 620 nM, respectively.

As for `COc1cc(/C=c2\sc3nc(-c4ccncc4)cn3c2=O)cc(Br)c1O` [Example 70, 2-[1-(3-Bromo-4-hydroxy-5-methoxy-phenyl)-meth-(Z)-ylidene]-6-(pyridin-4-yl)-imidazo[2,1-b]thiazol-3-one], the IC50 in assay [1] is 1.3 nM; in assay [2] it was 103 nM.

As to `COc1cc(/C=c2\sc3nc(-c4cccnc4)cn3c2=O)cc(F)c1O` [Example 71, 2-[1-(3-Fluoro-4-hydroxy-5-methoxy-phenyl)-meth-(Z)-ylidene]-6-(pyridin-3-yl)-imidazo[2,1-b]thiazol-3-one], the IC50 is 20 nM in assay [1] and 238 nM in assay [2].

On to `COc1cc(/C=c2\sc3nc(-c4cccnc4)cn3c2=O)cc(Br)c1O` [Example 72, 2-[1-(3-Bromo-4-hydroxy-5-methoxy-phenyl)-meth-(Z)-ylidene]-6-(pyridin-3-yl)-imidazo[2,1-b]thiazol-3-one], for which the IC50 turned out to be 3 nM in assay [1] and 229 nM in assay [2].

`COc1cc(/C=c2\sc3nc(-c4cccc(OCCF)c4)cn3c2=O)cc(Cl)c1O` [Example 74, 2-[1-(3-Chloro-4-hydroxy-5-methoxy-phenyl)-meth-(Z)-ylidene]-6-(3-(2-fluoroethoxyl)phenyl)-imidazo[2,1-b]thiazol-3-one]: the values for the IC50 in assay [1] and in assay [2] were 5 nM and 55 nM, respectively.

As for `COc1cc(/C=c2\sc3nc(-c4ccnc(C)c4)cn3c2=O)cc(Cl)c1O` [Example 75, 2-[1-(3-Chloro-4-hydroxy-5-methoxy-phenyl)-meth-(Z)-ylidene]-6-(2-methylpyridin-4-yl)-imidazo[2,1-b]thiazol-3-one], the IC50 is 1.3 nM in assay [1] and 122 nM in assay [2].

Turning to `COc1cc(/C=c2\sc3nc(-c4ccnc(C)c4)cn3c2=O)cc(F)c1O` [Example 76, 2-[1-(3-Fluoro-4-hydroxy-5-methoxy-phenyl)-meth-(Z)-ylidene]-6-(2-methylpyridin-4-yl)-imidazo[2,1-b]thiazol-3-one], the IC50 stood at 6 nM in assay [1] and 260 nM in assay [2].
